Experimental data from US5858667A, “Method for the enumeration of micronucleated erythrocyte populations with a single laser flow cytometer” (Litron Laboratories, priority 1996, dated 1999).
Values joined by “and” are separate entries in the source; they are usually repeats but may differ in a detail not shown here. Identical values can stand only once. “Also recorded” adds a separate entry of the source.

Key:
[1] = system: normochromatic erythrocytes; experiment: Flow cytometric micronucleus assay (FITC-anti-CD71/propidium iodide), normochromatic erythrocytes, MMS-treated mice; format: in vivo, male BALB/c mice; conditions: for Average Freq. (%) MN-NCE: average of 5 mice; for Freq. (%) MN-NCE / No. MN-NCE / No. NCE: individual mouse
Description: (§1) Optimum flow cytometer settings are extremely important in this process. The fluorescent signals of the stained micronucleated normochromatic erythrocyte and micronucleated reticulocyte populations should be clearly resolved from those of the normochromatic erythrocyte and reticulocyte cell populations. In accordance with the method of the present invention, the analyses described herein were carried out with a single laser flow cytometer (Fac Star^PLUS ™, Becton Dickenson). The 5 W argon ion laser was tuned to provide 488 nm excitation. Cells were passed through the laser at an average rate of 2,500-8,000 erythrocytes/second. One embodiment of the invention is to use a 20μ elliptical beam that is focused at the sample stream. The results and analyses described herein were obtained with said beam. As known to those skilled in the art, different beam shapes are also acceptable.
(§2) The flow cytometer is equipped with four photomultiplier tubes (PMTs) which are used to sense forward light scatter, side light scatter, red fluorescence signals, and green fluorescence signals. Proper filters must be placed before the green and red photomultiplier tubes. In accordance with the methods of the present invention, adequate fluorescent signals can be obtained if a 520 nm long pass filter and a 555 nm short pass filter is placed before the green PMT. In accordance with the methods of the present invention, a 580 nm long pass filter in front of the red PMT is desirable. This is a preferred configuration that allows optimal fluorescence detection. However, as known to those skilled in the art, other filter sets may be acceptable. The signals received by the PMTs and the light scatter photodiode are processed by an in-line computer and cell populations of interest are quantitated (see, e.g., FIG. 1) using software conventional to the art. The data may be acquired and processed as either logarithmic or linear signals. In one configuration of the invention, log data was acquired for the forward light scatter, side scatter, as well as red and green fluorescence peak height signals.
(§3) Erythrocytes were isolated by gating on forward and side light scatter parameters. The stop mode of each analysis was reached when 500,000 total erythrocytes were interrogated. A window was set up corresponding to cells low in both fluorescence due to the labelled antibody with binding specificity for a surface marker for erythroblasts/reticulocytes (e.g., anti-CD71 antibody) and fluorescence due to the nucleic acid staining dye (e.g., propidium iodide), such as for detecting normochromatic erythrocytes in the erythrocyte population. A second gate was used to define cells low in anti-CD71 fluorescence and high in propidium iodide fluorescence, such as for detecting micronucleated normochromatic erythrocytes in the erythrocyte population. Another region corresponding to cells which were high in anti-CD71 fluorescence and low in propidium iodide fluorescence, such as for detecting reticulocytes in the erythrocyte population. A fourth region corresponding to cells which were high in both anti-CD71 fluorescence and in propidium iodide fluorescence was defined for detecting micronucleated reticulocytes in the erythrocyte population. Having defined these regions, the frequency of reticulocytes, micronucleated reticulocytes, micronucleated normochromatic erythrocytes, and normochromatic erythrocytes were automatically determined by the flow cytometry software.
(§4) Propidium iodide and FITC have been employed to simultaneously label nucleic acids and cell surface antigens in human B-cell lymphomas (Kruth et al., 1981, Cancer Res. 41:4895-4899; Montecucco et al., 1985, Basic Appl. Histochem. 29:275-2821). In the method according to the present invention the combined use of a nucleic acid staining dye, such as propidium iodide, and FITC-antibody labeling is utilized to differentially stain micronucleated reticulocytes. […]

[2] = system: reticulocytes; experiment: Flow cytometric micronucleus assay (FITC-anti-CD71/propidium iodide), reticulocytes, MMS-treated mice; format: in vivo, male BALB/c mice; conditions: for Average Freq. (%) MN-RET: average of 5 mice; for Freq. (%) MN-RET / No. MN-RET / No. RET: individual mouse
Description: as §1, §2, §3, §4

[3] = system: micronuclei; conditions: previous observations, different methodologies; cited from earlier work
[4] = system: micronucleated polychromatic erythrocytes; conditions: administered 2 hours before clastogen exposure; cited from earlier work
[5] = 0-72 h after 100 mg MMS/kg i.p., in words

COS(C)(=O)=O [MMS, methyl methanesulfonate]
micronuclei frequency in the mature normochromatic erythrocyte population, time course [1, 5]: rise gradually over the course of the experiment; also recorded: rose slightly
Average Freq. (%) MN-NCE ([1]; 24 h after 100 mg MMS/kg i.p.): 0.26%
Freq. (%) MN-NCE ([1]; 24 h after 100 mg MMS/kg i.p.): 0.25% and 0.26% and 0.23% and 0.28%
No. MN-NCE ([1]; 24 h after 100 mg MMS/kg i.p.): 1244 and 1287 and 1145 and 1254 and 1391
No. NCE ([1]; 24 h after 100 mg MMS/kg i.p.): 490949 and 490112 and 488089 and 487462 and 490011
Average Freq. (%) MN-NCE ([1]; 40 h after 100 mg MMS/kg i.p.): 0.28%
Freq. (%) MN-NCE ([1]; 40 h after 100 mg MMS/kg i.p.): 0.29% and 0.26% and 0.24% and 0.30%
No. MN-NCE ([1]; 40 h after 100 mg MMS/kg i.p.): 1405 and 1285 and 1178 and 1445 and 1458
No. NCE ([1]; 40 h after 100 mg MMS/kg i.p.): 490511 and 485301 and 486302 and 484237 and 492350
Average Freq. (%) MN-NCE ([1]; 48 h after 100 mg MMS/kg i.p.): 0.30%
Freq. (%) MN-NCE ([1]; 48 h after 100 mg MMS/kg i.p.): 0.31% and 0.32% and 0.27%
No. MN-NCE ([1]; 48 h after 100 mg MMS/kg i.p.): 1515 and 1538 and 1298 and 1517 and 1339
No. NCE ([1]; 48 h after 100 mg MMS/kg i.p.): 487164 and 481651 and 480648 and 476364 and 490250
Average Freq. (%) MN-NCE ([1]; 72 h after 100 mg MMS/kg i.p.): 0.34%
Freq. (%) MN-NCE ([1]; 72 h after 100 mg MMS/kg i.p.): 0.34% and 0.36% and 0.35% and 0.33%
No. MN-NCE ([1]; 72 h after 100 mg MMS/kg i.p.): 1593 and 1573 and 1607 and 1628 and 1575
No. NCE ([1]; 72 h after 100 mg MMS/kg i.p.): 473052 and 462539 and 450096 and 461882 and 475141
frequency of micronucleated reticulocytes, time course [2, 5]: rise sharply over the course of the first 40 hours; also recorded: rise and fall quickly
Average Freq. (%) MN-RET ([2]; 24 h after 100 mg MMS/kg i.p.): 0.81%
Freq. (%) MN-RET ([2]; 24 h after 100 mg MMS/kg i.p.): 0.54% and 0.93% and 0.69% and 1.31% and 0.58%
No. MN-RET ([2]; 24 h after 100 mg MMS/kg i.p.): 46 and 88 and 80 and 162 and 55
No. RET ([2]; 24 h after 100 mg MMS/kg i.p.): 8531 and 9390 and 11532 and 12234 and 9391
Average Freq. (%) MN-RET ([2]; 40 h after 100 mg MMS/kg i.p.): 4.20%
Freq. (%) MN-RET ([2]; 40 h after 100 mg MMS/kg i.p.): 4.41% and 4.18% and 4.89% and 3.81% and 3.72%
No. MN-RET ([2]; 40 h after 100 mg MMS/kg i.p.): 386 and 592 and 652 and 581 and 262
No. RET ([2]; 40 h after 100 mg MMS/kg i.p.): 8373 and 13570 and 12679 and 14533 and 6785
Average Freq. (%) MN-RET ([2]; 48 h after 100 mg MMS/kg i.p.): 2.25%
Freq. (%) MN-RET ([2]; 48 h after 100 mg MMS/kg i.p.): 2.92% and 2.09% and 2.10% and 1.86% and 2.29%
No. MN-RET ([2]; 48 h after 100 mg MMS/kg i.p.): 355 and 366 and 396 and 431 and 211
No. RET ([2]; 48 h after 100 mg MMS/kg i.p.): 11794 and 17187 and 18484 and 22687 and 8990
Average Freq. (%) MN-RET ([2]; 72 h after 100 mg MMS/kg i.p.): 0.41%
Freq. (%) MN-RET ([2]; 72 h after 100 mg MMS/kg i.p.): 0.43% and 0.40% and 0.46% and 0.34%
No. MN-RET ([2]; 72 h after 100 mg MMS/kg i.p.): 112 and 147 and 224 and 150 and 82
No. RET ([2]; 72 h after 100 mg MMS/kg i.p.): 25838 and 36327 and 48913 and 36940 and 23744
time of maximum response (micronuclei formation) [3]: 36 h

chlorophyllin
effect on incidence of micronucleated polychromatic erythrocytes induced by gamma radiation [4]: reduced the incidence of micronucleated polychromatic erythrocytes
